The values below come from patent US6075054A, “Ortho-substituted benzoylguanidines, process for their preparation, their use as a medicament or diagnostic, and medicament comprising them” (Hoechst Aktiengesellschaft, priority 1997, dated 2000).

pIC50: −log10 of the molar value. Counter-ions that a name gives are not always drawn.

For the test, the target named is T1, Na^+ /H^+ exchanger of rabbit erythrocytes (Oryctolagus cuniculus, UniProt P23791).
T1 construct: endogenous in cells; host or cells: erythrocytes in whole blood of White New Zealand rabbits (Ivanovas) fed 2% cholesterol
Briefly: Inhibition of the Na^+ /H^+ exchanger of rabbit erythrocytes (amiloride-sensitive sodium influx, flame photometry). It is filed as cell-based, rabbit (White New Zealand). As to conditions: erythrocytes of rabbits on 2% cholesterol diet; hyperosmolar salt-sucrose medium, pH 7.4, 37° C. From the text:
Inhibition of the Na^+ /H^+ exchanger of rabbit erythrocytes White New Zealand rabbits (Ivanovas) received a standard diet with 2% cholesterol for six weeks in order to activate the Na^+ /H^+ exchange and thus to be able to determine the Na^+ -influx into the erythrocytes via Na^+ /H^+ exchange by flame photometry. The blood was taken from the auricular arteries and rendered incoagulable by 25 IU of potassium-heparin. A part of each sample was used for the duplicate determination of the hematocrits by centrifugation. Aliquots of 100 μl in each case were used for the measurement of the Na^+ starting content of the erythrocytes.
In order to determine the amiloride-sensitive sodium influx, 100 μl of each blood sample were incubated in 5 ml in each case of a hyperosmolar salt-sucrose medium (mmol/l: 140 NaCl, 3 KCl, 150 sucrose, 0.1 ouabain, 20 tris-hydroxymethylaminomethane) at pH 7.4 and 37° C. The erythrocytes were then washed three times with ice-cold MgCl2 -ouabain solution (mmol/l: 112 MgCl2, 0.1 ouabain) and hemolyzed in 2.0 ml of distilled water. The intracellular sodium content was determined by flame photometry.
The Na^+ net influx was calculated from the difference between sodium starting values and the sodium content of the erythrocytes after incubation. […]

T1 sequence (P23791 whole entry): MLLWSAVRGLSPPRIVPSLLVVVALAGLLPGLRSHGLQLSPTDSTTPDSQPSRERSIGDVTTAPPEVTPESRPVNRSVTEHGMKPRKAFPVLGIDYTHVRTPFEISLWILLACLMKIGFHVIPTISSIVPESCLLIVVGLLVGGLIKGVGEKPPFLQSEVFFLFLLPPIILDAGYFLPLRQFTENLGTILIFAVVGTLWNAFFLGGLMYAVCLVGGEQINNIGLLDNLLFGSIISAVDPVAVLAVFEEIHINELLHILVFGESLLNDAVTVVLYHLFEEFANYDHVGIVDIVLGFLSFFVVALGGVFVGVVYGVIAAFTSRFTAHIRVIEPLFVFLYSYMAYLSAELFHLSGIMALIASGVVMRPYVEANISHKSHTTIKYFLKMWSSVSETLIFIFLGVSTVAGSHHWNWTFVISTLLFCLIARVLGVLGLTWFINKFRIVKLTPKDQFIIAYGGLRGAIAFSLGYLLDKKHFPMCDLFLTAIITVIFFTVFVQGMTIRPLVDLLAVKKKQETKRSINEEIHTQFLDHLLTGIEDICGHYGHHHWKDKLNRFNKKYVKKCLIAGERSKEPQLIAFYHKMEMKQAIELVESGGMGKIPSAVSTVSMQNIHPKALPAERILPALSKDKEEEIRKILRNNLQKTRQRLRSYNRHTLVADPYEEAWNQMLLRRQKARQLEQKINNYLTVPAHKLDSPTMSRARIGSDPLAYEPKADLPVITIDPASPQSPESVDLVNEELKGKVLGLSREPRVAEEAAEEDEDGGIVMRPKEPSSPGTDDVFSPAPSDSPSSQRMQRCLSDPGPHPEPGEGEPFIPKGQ

Consider `Cc1cc(C(C)CO)c(C(F)(F)F)cc1C(=O)N=C(N)N` (racemic) [Example 1, hydrochloride], for which the pIC50 was 8.92.

The pIC50 is the IC50 on a negative log10 scale, so that one unit is a factor of ten.
